Reference: ChEMBL document CHEMBL4507291 (2021)

Columns and labels:
[1] = target: Muscarinic acetylcholine receptor M3 (Homo sapiens) (UniProt P20309); settings: Compound concentration 10.0 uM
[2] = target: T1, Rhodopsin kinase GRK7 (Homo sapiens) (UniProt Q8WTQ7)
T1 sequence (whole entry): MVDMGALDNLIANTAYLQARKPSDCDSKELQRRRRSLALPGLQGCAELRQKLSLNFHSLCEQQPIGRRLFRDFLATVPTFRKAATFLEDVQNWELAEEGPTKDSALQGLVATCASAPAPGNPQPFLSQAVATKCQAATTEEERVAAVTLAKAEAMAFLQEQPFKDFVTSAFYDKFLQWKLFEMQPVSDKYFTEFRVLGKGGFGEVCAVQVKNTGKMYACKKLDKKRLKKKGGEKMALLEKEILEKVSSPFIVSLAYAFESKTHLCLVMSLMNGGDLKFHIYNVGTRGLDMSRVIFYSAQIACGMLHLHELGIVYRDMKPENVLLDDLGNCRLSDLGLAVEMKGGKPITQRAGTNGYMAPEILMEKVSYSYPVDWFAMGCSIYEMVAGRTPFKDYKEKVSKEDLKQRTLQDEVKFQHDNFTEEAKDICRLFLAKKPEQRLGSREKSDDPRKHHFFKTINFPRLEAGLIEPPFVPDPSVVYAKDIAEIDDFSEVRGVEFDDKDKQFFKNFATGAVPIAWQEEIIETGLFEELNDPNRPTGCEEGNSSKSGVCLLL

[3] = target: Mitogen-activated protein kinase 15 (Homo sapiens) (UniProt Q8TD08)
Mitogen-activated protein kinase 15 (Homo sapiens), sequence (Q8TD08 whole entry, the tested form may be a part): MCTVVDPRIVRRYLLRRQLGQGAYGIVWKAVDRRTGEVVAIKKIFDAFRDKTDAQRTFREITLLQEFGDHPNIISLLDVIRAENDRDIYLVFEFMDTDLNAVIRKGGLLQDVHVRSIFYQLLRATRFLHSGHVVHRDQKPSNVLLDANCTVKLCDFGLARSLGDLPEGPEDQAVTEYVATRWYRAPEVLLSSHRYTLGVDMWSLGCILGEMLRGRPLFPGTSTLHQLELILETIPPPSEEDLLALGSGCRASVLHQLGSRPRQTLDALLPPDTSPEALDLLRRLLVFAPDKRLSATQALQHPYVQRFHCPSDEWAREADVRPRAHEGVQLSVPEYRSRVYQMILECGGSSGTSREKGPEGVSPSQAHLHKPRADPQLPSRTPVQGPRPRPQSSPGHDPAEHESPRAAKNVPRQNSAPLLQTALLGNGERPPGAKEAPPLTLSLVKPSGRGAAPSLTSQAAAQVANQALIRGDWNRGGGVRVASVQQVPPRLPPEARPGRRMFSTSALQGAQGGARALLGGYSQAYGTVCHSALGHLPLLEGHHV

[4] = target: Epithelial discoidin domain-containing receptor 1 (Homo sapiens) (UniProt Q08345)
Epithelial discoidin domain-containing receptor 1 (Homo sapiens), sequence (Q08345 whole entry, the tested form may be a part): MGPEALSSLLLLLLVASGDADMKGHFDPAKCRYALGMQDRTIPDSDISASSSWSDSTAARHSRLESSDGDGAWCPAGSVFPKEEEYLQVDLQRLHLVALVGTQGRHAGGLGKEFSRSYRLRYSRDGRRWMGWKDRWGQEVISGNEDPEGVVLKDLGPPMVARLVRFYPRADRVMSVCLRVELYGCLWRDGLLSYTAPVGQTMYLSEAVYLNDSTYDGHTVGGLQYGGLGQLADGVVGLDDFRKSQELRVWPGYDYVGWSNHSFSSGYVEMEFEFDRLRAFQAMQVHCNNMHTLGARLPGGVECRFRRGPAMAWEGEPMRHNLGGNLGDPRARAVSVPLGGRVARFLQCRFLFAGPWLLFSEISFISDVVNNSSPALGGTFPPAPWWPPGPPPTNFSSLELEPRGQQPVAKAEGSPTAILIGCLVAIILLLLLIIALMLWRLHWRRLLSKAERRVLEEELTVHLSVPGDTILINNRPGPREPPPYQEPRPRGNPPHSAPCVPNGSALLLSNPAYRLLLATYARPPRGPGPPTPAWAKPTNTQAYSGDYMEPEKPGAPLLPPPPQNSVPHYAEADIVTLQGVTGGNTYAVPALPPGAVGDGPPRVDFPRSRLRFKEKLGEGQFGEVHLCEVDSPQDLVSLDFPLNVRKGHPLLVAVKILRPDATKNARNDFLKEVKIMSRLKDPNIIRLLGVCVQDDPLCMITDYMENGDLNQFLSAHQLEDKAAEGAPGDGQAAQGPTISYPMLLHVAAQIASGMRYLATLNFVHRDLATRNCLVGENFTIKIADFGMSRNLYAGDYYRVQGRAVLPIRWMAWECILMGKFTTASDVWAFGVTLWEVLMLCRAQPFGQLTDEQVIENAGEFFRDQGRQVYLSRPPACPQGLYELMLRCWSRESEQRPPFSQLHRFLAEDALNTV

[5] = target: Histamine H1 receptor (Homo sapiens) (UniProt P35367); settings: Compound concentration 10.0 uM
Histamine H1 receptor (Homo sapiens), sequence (P35367 whole entry): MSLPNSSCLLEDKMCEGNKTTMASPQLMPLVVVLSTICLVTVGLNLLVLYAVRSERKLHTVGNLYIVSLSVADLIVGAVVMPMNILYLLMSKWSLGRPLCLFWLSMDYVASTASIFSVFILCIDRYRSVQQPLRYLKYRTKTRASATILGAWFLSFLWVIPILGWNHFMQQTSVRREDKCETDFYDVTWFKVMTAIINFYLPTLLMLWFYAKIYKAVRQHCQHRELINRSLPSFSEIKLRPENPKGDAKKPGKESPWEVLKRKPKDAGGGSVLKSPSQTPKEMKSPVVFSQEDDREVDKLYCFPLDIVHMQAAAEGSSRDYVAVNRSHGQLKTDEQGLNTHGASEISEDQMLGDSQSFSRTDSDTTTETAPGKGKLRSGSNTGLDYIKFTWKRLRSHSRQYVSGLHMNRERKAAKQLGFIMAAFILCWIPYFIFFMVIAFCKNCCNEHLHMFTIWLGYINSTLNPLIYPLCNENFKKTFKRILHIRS

[6] = target: T2, Beta-adrenergic receptor kinase 1 (Homo sapiens) (UniProt P25098)
T2 sequence (whole entry): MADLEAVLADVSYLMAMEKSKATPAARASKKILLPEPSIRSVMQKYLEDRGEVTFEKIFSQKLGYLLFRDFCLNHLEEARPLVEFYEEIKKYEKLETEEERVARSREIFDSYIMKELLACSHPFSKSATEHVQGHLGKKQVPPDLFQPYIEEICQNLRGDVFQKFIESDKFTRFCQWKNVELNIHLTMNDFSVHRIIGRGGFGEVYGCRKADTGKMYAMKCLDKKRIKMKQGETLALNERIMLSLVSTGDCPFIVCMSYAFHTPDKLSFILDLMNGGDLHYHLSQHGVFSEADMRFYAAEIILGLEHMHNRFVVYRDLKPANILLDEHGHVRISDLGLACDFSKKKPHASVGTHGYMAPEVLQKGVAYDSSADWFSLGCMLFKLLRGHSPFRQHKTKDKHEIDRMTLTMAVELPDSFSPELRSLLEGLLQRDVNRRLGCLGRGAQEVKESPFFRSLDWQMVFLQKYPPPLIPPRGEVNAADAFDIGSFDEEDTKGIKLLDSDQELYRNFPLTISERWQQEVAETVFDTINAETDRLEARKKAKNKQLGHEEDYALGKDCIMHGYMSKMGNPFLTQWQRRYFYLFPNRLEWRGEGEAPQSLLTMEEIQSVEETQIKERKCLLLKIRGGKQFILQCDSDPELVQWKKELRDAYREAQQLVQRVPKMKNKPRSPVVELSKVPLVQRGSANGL

[7] = target: Serine/threonine-protein kinase Nek6 (Homo sapiens) (UniProt Q9HC98)
Serine/threonine-protein kinase Nek6 (Homo sapiens), sequence (Q9HC98 whole entry): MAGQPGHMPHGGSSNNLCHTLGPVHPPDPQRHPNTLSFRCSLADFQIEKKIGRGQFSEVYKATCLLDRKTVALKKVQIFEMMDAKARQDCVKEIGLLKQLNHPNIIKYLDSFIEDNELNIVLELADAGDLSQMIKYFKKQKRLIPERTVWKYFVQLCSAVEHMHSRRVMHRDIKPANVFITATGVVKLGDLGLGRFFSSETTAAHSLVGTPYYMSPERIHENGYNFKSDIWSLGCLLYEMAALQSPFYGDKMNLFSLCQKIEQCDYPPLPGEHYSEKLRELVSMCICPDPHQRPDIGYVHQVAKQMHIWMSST

[8] = target: T3, cGMP-dependent protein kinase 2 (Homo sapiens) (UniProt Q13237)
T3 sequence (whole entry): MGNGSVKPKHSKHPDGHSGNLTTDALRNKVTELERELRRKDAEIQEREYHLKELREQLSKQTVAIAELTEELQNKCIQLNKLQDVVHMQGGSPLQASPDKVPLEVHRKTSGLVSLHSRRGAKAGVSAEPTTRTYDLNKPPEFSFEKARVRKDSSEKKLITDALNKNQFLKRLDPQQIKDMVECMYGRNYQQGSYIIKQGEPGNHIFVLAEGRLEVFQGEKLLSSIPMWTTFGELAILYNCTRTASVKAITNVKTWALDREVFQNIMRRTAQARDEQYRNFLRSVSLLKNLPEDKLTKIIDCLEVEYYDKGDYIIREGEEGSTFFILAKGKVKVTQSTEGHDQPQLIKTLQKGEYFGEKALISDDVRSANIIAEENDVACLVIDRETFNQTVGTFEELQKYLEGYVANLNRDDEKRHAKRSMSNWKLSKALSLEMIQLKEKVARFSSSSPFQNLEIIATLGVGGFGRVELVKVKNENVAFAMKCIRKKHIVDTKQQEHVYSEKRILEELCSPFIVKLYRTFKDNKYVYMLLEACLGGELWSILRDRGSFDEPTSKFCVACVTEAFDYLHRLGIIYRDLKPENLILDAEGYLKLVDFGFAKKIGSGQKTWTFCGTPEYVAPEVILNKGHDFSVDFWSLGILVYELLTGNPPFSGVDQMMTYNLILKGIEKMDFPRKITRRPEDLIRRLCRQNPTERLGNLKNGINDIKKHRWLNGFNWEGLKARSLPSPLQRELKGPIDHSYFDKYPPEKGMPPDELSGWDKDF

[9] = target: T4, Serine/threonine-protein kinase Chk1 (Homo sapiens) (UniProt O14757)
T4 sequence (whole entry): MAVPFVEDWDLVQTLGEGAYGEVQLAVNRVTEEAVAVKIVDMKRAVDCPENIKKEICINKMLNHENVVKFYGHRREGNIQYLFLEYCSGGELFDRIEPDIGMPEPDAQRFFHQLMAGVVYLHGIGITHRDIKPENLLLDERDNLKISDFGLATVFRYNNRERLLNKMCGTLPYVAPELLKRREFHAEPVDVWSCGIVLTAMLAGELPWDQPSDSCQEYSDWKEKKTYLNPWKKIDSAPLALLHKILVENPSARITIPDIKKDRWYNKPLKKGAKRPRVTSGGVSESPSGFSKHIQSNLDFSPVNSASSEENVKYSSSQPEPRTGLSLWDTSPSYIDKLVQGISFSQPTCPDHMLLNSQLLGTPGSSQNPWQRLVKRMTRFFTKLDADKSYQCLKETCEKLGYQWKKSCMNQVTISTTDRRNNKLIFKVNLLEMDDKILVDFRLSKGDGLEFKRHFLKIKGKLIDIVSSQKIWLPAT

[10] = target: Ribosomal protein S6 kinase alpha-3 (Homo sapiens) (UniProt P51812)
Ribosomal protein S6 kinase alpha-3 (Homo sapiens), sequence (P51812 whole entry): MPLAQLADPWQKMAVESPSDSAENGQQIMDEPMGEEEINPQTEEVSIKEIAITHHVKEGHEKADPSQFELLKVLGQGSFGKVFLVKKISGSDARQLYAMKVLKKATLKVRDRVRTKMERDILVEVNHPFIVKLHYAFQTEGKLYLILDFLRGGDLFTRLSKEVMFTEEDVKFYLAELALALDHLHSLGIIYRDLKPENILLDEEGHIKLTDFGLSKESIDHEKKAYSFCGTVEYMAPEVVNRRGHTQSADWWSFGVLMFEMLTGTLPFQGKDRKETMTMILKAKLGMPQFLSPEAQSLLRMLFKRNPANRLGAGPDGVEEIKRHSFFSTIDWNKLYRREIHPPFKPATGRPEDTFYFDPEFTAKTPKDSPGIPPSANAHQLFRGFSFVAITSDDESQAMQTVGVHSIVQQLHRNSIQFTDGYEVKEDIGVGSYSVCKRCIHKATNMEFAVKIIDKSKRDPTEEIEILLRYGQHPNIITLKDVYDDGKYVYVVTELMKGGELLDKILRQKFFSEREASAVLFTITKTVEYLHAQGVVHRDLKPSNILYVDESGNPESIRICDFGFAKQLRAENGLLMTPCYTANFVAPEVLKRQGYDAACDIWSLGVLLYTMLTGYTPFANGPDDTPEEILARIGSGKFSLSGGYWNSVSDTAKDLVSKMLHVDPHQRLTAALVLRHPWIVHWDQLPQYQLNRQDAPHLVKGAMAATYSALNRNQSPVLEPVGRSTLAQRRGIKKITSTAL

[11] = target: NT-3 growth factor receptor (Homo sapiens) (UniProt Q16288)
NT-3 growth factor receptor (Homo sapiens), sequence (Q16288 32-839 limits assumed): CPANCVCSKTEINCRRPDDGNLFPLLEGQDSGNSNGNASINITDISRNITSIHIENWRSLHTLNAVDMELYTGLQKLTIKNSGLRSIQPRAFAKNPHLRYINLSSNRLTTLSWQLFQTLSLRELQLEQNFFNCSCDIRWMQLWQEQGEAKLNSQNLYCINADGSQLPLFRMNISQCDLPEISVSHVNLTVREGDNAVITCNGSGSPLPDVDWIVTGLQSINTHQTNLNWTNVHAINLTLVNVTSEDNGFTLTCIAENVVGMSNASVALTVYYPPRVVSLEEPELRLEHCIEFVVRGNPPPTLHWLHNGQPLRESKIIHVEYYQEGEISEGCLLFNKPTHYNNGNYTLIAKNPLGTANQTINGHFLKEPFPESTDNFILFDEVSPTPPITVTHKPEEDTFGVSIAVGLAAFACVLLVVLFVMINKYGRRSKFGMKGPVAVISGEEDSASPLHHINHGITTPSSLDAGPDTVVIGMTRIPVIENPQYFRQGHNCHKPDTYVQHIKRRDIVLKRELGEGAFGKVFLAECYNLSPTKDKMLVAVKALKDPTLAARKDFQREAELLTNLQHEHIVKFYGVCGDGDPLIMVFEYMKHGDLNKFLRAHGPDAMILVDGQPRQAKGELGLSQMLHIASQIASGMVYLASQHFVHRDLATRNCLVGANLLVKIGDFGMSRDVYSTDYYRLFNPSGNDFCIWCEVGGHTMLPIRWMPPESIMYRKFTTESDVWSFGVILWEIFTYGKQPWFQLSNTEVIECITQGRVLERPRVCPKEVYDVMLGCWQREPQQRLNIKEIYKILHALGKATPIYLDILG

[12] = target: Serine/threonine-protein kinase/endoribonuclease IRE1 (Homo sapiens) (UniProt O75460)
Serine/threonine-protein kinase/endoribonuclease IRE1 (Homo sapiens), sequence (O75460 19-977 limits assumed): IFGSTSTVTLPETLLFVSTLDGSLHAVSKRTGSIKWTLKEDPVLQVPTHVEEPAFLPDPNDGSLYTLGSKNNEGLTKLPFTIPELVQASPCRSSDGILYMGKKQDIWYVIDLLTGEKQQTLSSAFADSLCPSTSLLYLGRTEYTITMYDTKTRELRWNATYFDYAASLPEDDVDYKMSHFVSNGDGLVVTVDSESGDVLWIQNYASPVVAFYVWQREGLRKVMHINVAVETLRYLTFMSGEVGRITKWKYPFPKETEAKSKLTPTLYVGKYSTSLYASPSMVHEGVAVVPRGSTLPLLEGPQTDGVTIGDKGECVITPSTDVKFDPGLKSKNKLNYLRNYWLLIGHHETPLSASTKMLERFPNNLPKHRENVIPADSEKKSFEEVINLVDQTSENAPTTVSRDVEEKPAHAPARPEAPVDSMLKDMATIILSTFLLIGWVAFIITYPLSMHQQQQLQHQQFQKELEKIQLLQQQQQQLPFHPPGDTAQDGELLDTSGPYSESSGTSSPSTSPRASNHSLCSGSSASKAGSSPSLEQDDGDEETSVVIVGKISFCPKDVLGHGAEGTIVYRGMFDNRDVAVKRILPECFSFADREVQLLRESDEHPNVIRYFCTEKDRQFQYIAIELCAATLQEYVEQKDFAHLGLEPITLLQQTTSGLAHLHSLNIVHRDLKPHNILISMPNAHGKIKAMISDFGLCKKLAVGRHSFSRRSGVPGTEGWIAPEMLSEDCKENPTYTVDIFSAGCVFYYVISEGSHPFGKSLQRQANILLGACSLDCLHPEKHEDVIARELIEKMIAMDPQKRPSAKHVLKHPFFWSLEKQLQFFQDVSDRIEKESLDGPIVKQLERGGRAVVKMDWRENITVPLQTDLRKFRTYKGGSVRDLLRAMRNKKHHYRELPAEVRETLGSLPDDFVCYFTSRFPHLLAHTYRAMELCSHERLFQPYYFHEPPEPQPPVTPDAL

[13] = Compound concentration 1000.0 nM
[14] = Compound concentration 100.0 nM

C[C@@H]1CN(c2cc(-c3nn(C)c4ccc(OC5(C)CC5)cc34)ncn2)C[C@H](C)O1 [MLi-2-NC]
inactive: inhibition [1] 6.03% | residual activity [2, 13] 100% | residual activity [3, 13] 72% | residual activity [4, 13] 68% | inhibition [5] 11.9% | residual activity [6, 13] 68% | residual activity [7, 13] 100% | residual activity [8, 13] 85% | residual activity [9, 13] 57% | residual activity [10, 13] 91% | residual activity [11, 13] 65% | residual activity [12, 13] 69%

C[C@@H]1CN(c2cc(-c3n[nH]c4ccc(OC5(C)CC5)cc34)ncn2)C[C@H](C)O1 [MLi-2]
inactive: inhibition [1] 7.93% | residual activity [2, 14] 64% | residual activity [3, 14] 81% | residual activity [4, 14] 91% | inhibition [5] -6.46% | residual activity [6, 14] 86% | residual activity [7, 14] 100% | residual activity [8, 14] 79% | residual activity [9, 14] 90% | residual activity [10, 14] 85% | residual activity [11, 14] 86% | residual activity [12, 14] 79%
